Data as given in US7858657B2 (Proix Pharmaceutical Corp., priority 2004, dated 2010).
Several values for one entry are separate records, joined by “and”; a condition that tells them apart may be missing. Equal values may be shown once. Where a name gives a salt, the structure may show the parent alone. Marks after values point to notes of the source that are not given here.

Assays:
A-549 lung = assay: Antitumor activity of cytotoxic drugs alone or combined with PX-866, A-549 lung (Table 2); type: in vivo; settings: size 300 mm^3; cisplatin ip 1 mg/kg QD × 5
HT-29 colon [1] = assay: Antitumor activity of cytotoxic drugs alone or combined with PX-866, HT-29 colon (Table 2); type: in vivo; settings: size 150 mm^3; cisplatin ip 2.5 mg/kg Q2D × 3
Panc-1 pancreatic = assay: Antitumor activity of cytotoxic drugs alone or combined with PX-866, Panc-1 pancreatic (Table 2); type: in vivo; settings: size 75 mm^3; gemcitabine ip 150 mg/kg Q3D × 3
[2] = tested on: A-549 human nsc lung cancer xenografts; assay: Antitumor studies, PX-866 and gefitinib in A-549 xenografts; type: in vivo, scid mice
Method: Antitumor Studies. […] When the tumors reached 100 or 600 mm3 the mice were stratified into groups of 8 animals having approximately equal mean tumor volumes and drug administration was started. […] Animals were weighed weekly and tumor diameters were measured twice weekly at right angles (d short and d long) with electronic calipers and tumor volumes calculated by the formula volume=(dshort)2×(dlong))2. When the tumor reached 2,000 mm3 or more, or became necrotic the animals were euthanized.
In vivo antitumor studies. […] Tumors were allowed to grow to a mean volume of […] before drug treatment was started every other day for 14 doses. Antitumor activity is expressed as the % volume of the treated tumor/control tumor (T/C %) at the end of the dosing period. There were 8 mice in each group and all differences are p<0.01.

[3] = tested on: tumor phospho-Akt (A-549 tumor xenografts); assay: Pharmacodynamic studies, tumor phospho-Akt in A-549 xenografts; type: in vivo, scid mice; settings: gefitinib 75 mg/kg po every other day for 5 days
Text: Pharmacodynamic Studies. […] Tumor Akt activity was expressed as the ratio of phospho-Ser473-Akt to total Akt.

[4] = Glucose tolerance studies; settings: mean ± SE of 4 mice
Method: Glucose Tolerance Studies. Female C5781/6 mice were fasted overnight and administered a single dose of D(+) glucose (1 mg/kg) as a 0.1 g/ml solution po. […] Human recombinant insulin was administered at 0.075:g/kg ip (26) at the same time as glucose administration.
Values are the mean±SE of 4 mice per group.

OvCaR-3 ovarian [5] = assay: Antitumor activity of wortmannin analogs, OvCaR-3 ovarian tumor (Table 1); type: in vivo; settings: initial tumor vol 120 mm^3; for T/C % (optimal test/control): day 40
HT-29 colon [6] = assay: Antitumor activity of wortmannin analogs, HT-29 colon tumor (Table 1); type: in vivo; settings: for T/C % (optimal test/control): day 16
p110α/p85α = target: T1, p110α/p85α (Bos taurus, UniProt P32871); assay: Inhibition of recombinant PtdIns-3-kinase, [32P]-ATP dependent phosphorylation of PtdIns; type: biochemical, bovine
T1 construct: purchased Upstate (Charlottesville, Va.)
Text: Materials and Methods. Compounds. […] Rabbit purified anti-phosphoSer473-Akt antibody, anti-Akt antibody, antiphospho Tyr1086-EGF-receptor antibody and anti-EGFR antibody were obtained from Cell Signaling Technology (Beverly, Mass.). Human recombinant p110α/p85α, p110β/p85α, p120 (and p110*/p85α PtdIns-3-kinases were obtained from Upstate (Charlottesville, Va.). Metformin hydrochloride was obtained from Spectrum Chemical (Gardena, Calif.), pioglitazone hydrochloride and recombinant human insulin from Sigma Chemical (St. Louis).
Measurement of PtdIns-3-kinase.

OvCaR-3 ovarian [7] = assay: Antitumor activity of cytotoxic drugs alone or combined with PX-866, OvCar-3 ovarian (Table 2); type: in vivo; settings: size 110 mm^3; taxol ip 12 mg/kg Q2D × 5
[8] = initial tumor vol 170 mm^3, 13 mg/kg/day ip Q1D × 9
[9] = initial tumor vol 180 mm^3, 0.75 mg/kg/day ip Q1D × 9

T1 sequence (P32871 whole entry): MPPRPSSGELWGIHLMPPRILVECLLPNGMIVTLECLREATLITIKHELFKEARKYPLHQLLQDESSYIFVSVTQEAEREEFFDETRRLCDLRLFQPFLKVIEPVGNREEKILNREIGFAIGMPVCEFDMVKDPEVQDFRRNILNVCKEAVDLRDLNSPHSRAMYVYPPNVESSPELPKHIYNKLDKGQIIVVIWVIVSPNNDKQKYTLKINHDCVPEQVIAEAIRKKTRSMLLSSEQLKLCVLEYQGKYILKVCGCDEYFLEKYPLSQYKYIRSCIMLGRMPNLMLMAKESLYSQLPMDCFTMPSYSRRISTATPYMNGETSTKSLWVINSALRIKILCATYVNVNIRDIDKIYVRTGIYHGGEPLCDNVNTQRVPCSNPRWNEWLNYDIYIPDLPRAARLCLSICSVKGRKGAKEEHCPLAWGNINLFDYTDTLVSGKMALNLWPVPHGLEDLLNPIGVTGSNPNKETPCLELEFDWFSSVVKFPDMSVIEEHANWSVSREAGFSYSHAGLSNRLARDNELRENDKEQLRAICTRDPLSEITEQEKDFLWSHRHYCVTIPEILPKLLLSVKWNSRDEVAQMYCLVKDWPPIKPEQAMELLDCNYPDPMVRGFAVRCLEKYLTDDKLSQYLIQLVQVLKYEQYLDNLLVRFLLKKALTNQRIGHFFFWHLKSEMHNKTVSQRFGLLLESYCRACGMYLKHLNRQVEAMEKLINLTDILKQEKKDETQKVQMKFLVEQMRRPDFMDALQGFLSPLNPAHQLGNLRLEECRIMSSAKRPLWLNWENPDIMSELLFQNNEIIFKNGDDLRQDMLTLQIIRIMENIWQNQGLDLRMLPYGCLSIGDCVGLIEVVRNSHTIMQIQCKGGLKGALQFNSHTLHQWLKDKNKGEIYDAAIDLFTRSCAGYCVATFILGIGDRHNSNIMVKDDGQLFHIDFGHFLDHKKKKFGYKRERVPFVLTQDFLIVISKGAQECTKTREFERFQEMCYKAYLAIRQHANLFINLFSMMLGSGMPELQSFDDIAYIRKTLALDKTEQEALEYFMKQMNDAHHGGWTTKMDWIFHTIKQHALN
T1 sequence (P23727 2-724 partner): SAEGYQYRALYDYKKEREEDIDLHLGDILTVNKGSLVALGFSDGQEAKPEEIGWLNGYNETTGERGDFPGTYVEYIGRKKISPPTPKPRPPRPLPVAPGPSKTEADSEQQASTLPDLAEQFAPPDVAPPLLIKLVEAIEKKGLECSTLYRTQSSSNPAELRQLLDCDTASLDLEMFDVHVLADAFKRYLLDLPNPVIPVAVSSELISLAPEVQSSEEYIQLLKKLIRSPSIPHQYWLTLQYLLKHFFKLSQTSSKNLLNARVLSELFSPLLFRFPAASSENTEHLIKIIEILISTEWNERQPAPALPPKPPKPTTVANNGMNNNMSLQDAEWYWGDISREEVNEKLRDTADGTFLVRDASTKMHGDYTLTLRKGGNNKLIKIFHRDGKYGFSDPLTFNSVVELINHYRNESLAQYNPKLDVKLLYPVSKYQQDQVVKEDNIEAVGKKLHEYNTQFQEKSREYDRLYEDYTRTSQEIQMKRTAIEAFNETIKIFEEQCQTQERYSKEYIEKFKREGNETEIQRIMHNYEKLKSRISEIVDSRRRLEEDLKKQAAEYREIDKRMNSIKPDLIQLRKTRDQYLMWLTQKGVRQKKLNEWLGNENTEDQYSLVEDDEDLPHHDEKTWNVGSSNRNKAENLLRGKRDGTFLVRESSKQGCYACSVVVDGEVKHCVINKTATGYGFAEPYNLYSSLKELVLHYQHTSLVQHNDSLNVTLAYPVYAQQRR

Molecule: N.N.[Cl][Pt][Cl] [cisplatin, reference compound]
- Alone Growth delay days (A-549 lung): 1 days
- Alone TGI % (A-549 lung): 16%
- Alone log cell kill (A-549 lung): 0.1
- Alone Growth delay days (HT-29 colon [1]): 0 days
- Alone TGI % (HT-29 colon [1]): 11%
- Alone log cell kill (HT-29 colon [1]): 0

Molecule: Nc1ccn([C@@H]2O[C@H](CO)[C@@H](O)C2(F)F)c(=O)n1 [gemcitabine, reference compound]
- Alone Growth delay days (Panc-1 pancreatic): 7 days
- Alone TGI % (Panc-1 pancreatic): 38%
- Alone log cell kill (Panc-1 pancreatic): 0.2

Molecule: COc1cc2ncnc(Nc3ccc(F)c(Cl)c3)c2cc1OCCCN1CCOCC1 [gefitinib, reference compound]
- tumor T/Cs ([2]; administered long term, single agent (discussion)): around 50%
- Tumor T/C % ([2]; gefitinib po 75 mg/kg QOD × 14, 100 mm3 tumors, end of dosing period, 75 mg/kg): 51% and 50.8%
- effect upon tumor phospho-Akt [3]: no significant effect

Molecule: CN(C)C(=N)N=C(N)N [Metformin, Metformin hydrochloride, reference compound]
- plasma glucose AUC0-180 min ([4]; Metformin 250 mg/kg IP QD × 5, without PX-866): 367 ± 46 mg·min/mL
- plasma glucose AUC0-180 min ([4]; Metformin 250 mg/kg IP QD × 5 with PX-866 10 mg/kg po, hydrochloride): 537 ± 4^b mg · min · ml^−1
- plasma glucose AUC0-180 min ([4]; Metformin 250 mg/kg IP QD × 5 with PX-866 10 mg/kg po, listed as metformin, hydrochloride): had no effect

Molecule: COC[C@@H]1OC(=O)/C(=C/N2CCCC2)C2=C(O)C(=O)C3=C([C@H](OC(C)=O)C[C@]4(C)C(=O)CC[C@H]34)[C@]21C [PX-867, Acetic acid 6-hydroxy-1α-methoxymethyl-10β,13β-dimethyl-3,7,17-trioxo-4-pyrrolidin-1-yl-methylene-1,3,4,7,10,11β,12,13,14α,15,16,17-dodecahydro-2-oxa-cyclopenta[α]phenanthren-11-yl]
- Growth Delay (OvCaR-3 ovarian [5]; 13 mg/kg/day ip Q1D × 9): 6 days
- Log10 cell kill (OvCaR-3 ovarian [5]; 13 mg/kg/day ip Q1D × 9): 0.6
- T/C % (optimal test/control) (OvCaR-3 ovarian [5]; 13 mg/kg/day ip Q1D × 9): 41 (40) %
- Growth Delay (HT-29 colon [6]; [8]): 0 days
- Log10 cell kill (HT-29 colon [6]; [8]): 0
- T/C % (optimal test/control) (HT-29 colon [6]; [8]): 80 (16) %

Molecule: CCc1ccc(CCOc2ccc(CC3SC(=O)NC3=O)cc2)nc1 (stereo not drawn) [Pioglitazone, pioglitazone hydrochloride, reference compound]
- plasma glucose AUC0-180 min ([4]; Pioglitazone 10 mg/kg ip QD × 7, without PX-866): 274 ± 3 mg·min/mL
- plasma glucose AUC0-180 min ([4]; Pioglitazone 10 mg/kg ip QD × 7 with PX-866 10 mg/kg po, hydrochloride): 340 ± 39^c mg · min · ml^−1

Molecule: COC[C@H]1OC(=O)c2coc3c2[C@@]1(C)C1=C(C3=O)[C@@H]2CCC(=O)[C@@]2(C)C[C@H]1OC(C)=O [wortmannin, reference compound]
- IC50 (p110α/p85α): 4 nM
- Growth Delay (OvCaR-3 ovarian [5]; 0.75 mg/kg/day ip Q1D × 9): 5 days
- Log10 cell kill (OvCaR-3 ovarian [5]; 0.75 mg/kg/day ip Q1D × 9): 0.5
- T/C % (optimal test/control) (OvCaR-3 ovarian [5]; 0.75 mg/kg/day ip Q1D × 9): 47 (40) %
- Growth Delay (HT-29 colon [6]; [9]): 5 days
- Log10 cell kill (HT-29 colon [6]; [9]): 0.3
- T/C % (optimal test/control) (HT-29 colon [6]; [9]): 36 (16) %

Molecule: Insulin: recombinant human insulin from Sigma Chemical
- plasma glucose AUC0-180 min ([4]; Insulin 0.075 μ/kg ip with PX-866 10 mg/kg po): 64 ± 5^ mg · min · ml^−1
- plasma glucose AUC0-180 min ([4]; Insulin 0.075 μ/kg ip with PX-866 10 mg/kg po, listed as insulin): overcame the increase in plasma glucose caused by PX-866
- plasma glucose AUC0-180 min ([4]; Insulin 0.075 μ/kg ip, without PX-866): 64 ± 25 mg·min/mL

Molecule: CC(=O)O[C@H]1C(=O)[C@@]2(C)[C@H]([C@H](OC(=O)c3ccccc3)[C@]3(O)C[C@H](OC(=O)[C@H](O)[C@@H](NC(=O)c4ccccc4)c4ccccc4)C(C)=C1C3(C)C)[C@]1(OC(C)=O)CO[C@@H]1C[C@@H]2O [taxol, paclitaxel, reference compound]
- Alone Growth delay days (OvCaR-3 ovarian [7]): 13 days
- Alone TGI % (OvCaR-3 ovarian [7]): 58%
- Alone log cell kill (OvCaR-3 ovarian [7]): 1.0
